Measured values reported in patent US11865098B1, “Methods and compositions for treating excessive sleepiness” (Axsome Malta Ltd., priority 2017, dated 2024).

Assays:
[1] = system: adult patients with OSA and ES; experiment: PGI-C, 12-week placebo-controlled parallel study in OSA; assay type: in vivo, human; details: 37.5, 75, 150, 300 mg; week 12; listed as APC
Experimental: The study was a 12-week, double-blind, placebo-controlled, parallel design study as described in greater detail in Example 1 (Schweitzer et al., Sleep 40(Abstract Supplement):A237. Abstract 0641 (2017)). Patients were randomized (1:1:2:2:2) to APC 37.5, 75, 150, 300 mg, or placebo for 12 weeks, and were stratified by adherence or non-adherence with primary OSA therapy (adherent definition was use for ≥4 hours per night on >70% of nights). Two patient-reported measures were included as secondary efficacy outcomes to evaluate the effects of APC on functional status and work productivity and activity impairment at baseline and weeks 1, 4, 8, and 12. The Functional Outcomes of Sleep questionnaire short version (FOSQ-10) (Chasens et al., Sleep 32(7):915 (2009)) evaluated the effects of ES on functioning. The Work Productivity and Activity Impairment questionnaire for Specific Health Problems (WPAI:SHP) (Reilly et al., Pharmacoeconomics 4(5):353 (1993); Reilly, Work Productivity and Activity Impairment Questionnaire: Specific Health Problem V2.0 (WPAI: SHP). www.reillyassociates.net/WPAI_SHP) evaluated work productivity impairment among employed patients and overall activity impairment outside of work among all patients for the past 7 days. […]

[2] = system: adult patients with OSA and ES; experiment: Safety and tolerability (TEAEs, vital signs), 12-week parallel study in OSA; assay type: in vivo, human; details: for Anxiety, incidence / Any TEAE, incidence / Decreased appetite, incidence / Diarrhea, incidence / Discontinuations due to TEAEs, incidence / Dry mouth, incidence / Feeling jittery, incidence / Headache, incidence / Insomnia, incidence / Irritability, incidence / Nasopharyngitis, incidence / Nausea, incidence / Pruritus, incidence / Serious TEAEs, incidence / Sinusitis, incidence: safety population
Experimental: The study was a 12-week, double-blind, placebo-controlled, parallel design study as described in greater detail in Example 1 (Schweitzer et al., Sleep 40(Abstract Supplement):A237. Abstract 0641 (2017)). Patients were randomized (1:1:2:2:2) to APC 37.5, 75, 150, 300 mg, or placebo for 12 weeks, and were stratified by adherence or non-adherence with primary OSA therapy (adherent definition was use for ≥4 hours per night on >70% of nights). Two patient-reported measures were included as secondary efficacy outcomes to evaluate the effects of APC on functional status and work productivity and activity impairment at baseline and weeks 1, 4, 8, and 12. The Functional Outcomes of Sleep questionnaire short version (FOSQ-10) (Chasens et al., Sleep 32(7):915 (2009)) evaluated the effects of ES on functioning. The Work Productivity and Activity Impairment questionnaire for Specific Health Problems (WPAI:SHP) (Reilly et al., Pharmacoeconomics 4(5):353 (1993); Reilly, Work Productivity and Activity Impairment Questionnaire: Specific Health Problem V2.0 (WPAI: SHP). www.reillyassociates.net/WPAI_SHP) evaluated work productivity impairment among employed patients and overall activity impairment outside of work among all patients for the past 7 days. Four outcomes are available from the WPAI:SHP: Absenteeism (percent work time missed due to health); Presenteeism (percent impairment while working due to health); Percent overall work impairment (calculated from absenteeism and presenteeism); and Percent activity impairment due to health. The FOSQ-10 was evaluated as change over time compared with placebo (least squares (LS) mean); the 4 WPAI outcomes were evaluated at week 12 compared to placebo. Efficacy analyses were based on the modified intent-to-treat population (mITT) and there was no multiplicity adjustment for the FOSQ-10 or WPAI:SHP. Safety and tolerability were assessed based on treatment-emergent adverse events (TEAEs), vital signs, electrocardiogram test, physical exams, Columbia-Suicide Severity Rating Scale, and laboratory tests in the safety population.
Efficacy analyses were based on the modified intent-to-treat (mITT) population; there was no multiplicity adjustment for the SF-36 v2 or EQ-5D-5L. SF-36 v2 scores were scaled from 0 to 100 (higher scores on all scales represent better health), transformed to norm-based scores using US general-population data from SF-36 Manuals (Ware Jr et al., User's Manual for the SF-36v2™ Health Survey (2nd ed.). QualityMetric Incorporated (Lincoln, RI); 2007), and were analyzed using a mixed-effect model with repeated measures (MMRM); and baseline value of the efficacy endpoint was used to determine differences in changes from baseline. EQ-5D-5L VAS and index-score data were analyzed using an MMRM model. Safety and tolerability were assessed based on treatment-emergent adverse events (TEAEs), vital signs, electrocardiogram test, physical exams, and laboratory tests.

SMILES: NC(=O)OC[C@H](N)Cc1ccccc1 [JZP-110, (R)-2-amino-3-phenylpropyl carbamate]
- Key secondary endpoint, PGI-C [1]: met at all doses except for APC 37.5 mg
- Serious TEAEs reported (events) ([2]; 37.5 mg): bile duct obstruction (n=1) and streptococcal endocarditis (n=1)
- Anxiety, incidence ([2]; 37.5 mg (n = 58)): 1 (1.7) n (%)
- Any TEAE, incidence ([2]; 37.5 mg (n = 58)): 37 (63.8) n (%)
- Decreased appetite, incidence ([2]; 37.5 mg (n = 58)): 1 (1.7) n (%)
- Diarrhea, incidence ([2]; 37.5 mg (n = 58)): 1 (1.7) n (%)
- Discontinuations due to TEAEs, incidence ([2]; 37.5 mg (n = 58)): 3 (5.2) n (%)
- Dry mouth, incidence ([2]; 37.5 mg (n = 58)): 1 (1.7) n (%)
- Feeling jittery, incidence ([2]; 37.5 mg (n = 58)): 3 (5.2) n (%)
- Headache, incidence ([2]; 37.5 mg (n = 58)): 4 (6.9) n (%)
- Insomnia, incidence ([2]; 37.5 mg (n = 58)): 1 (1.7) n (%)
- Irritability, incidence ([2]; 37.5 mg (n = 58)): 3 (5.2) n (%)
- Nasopharyngitis, incidence ([2]; 37.5 mg (n = 58)): 2 (3.4) n (%)
- Nausea, incidence ([2]; 37.5 mg (n = 58)): 3 (5.2) n (%)
- Pruritus, incidence ([2]; 37.5 mg (n = 58)): 3 (5.2) n (%)
- Serious TEAEs, incidence ([2]; 37.5 mg (n = 58)): 2 (3.4) n (%)
- Sinusitis, incidence ([2]; 37.5 mg (n = 58)): 1 (1.7) n (%)
- Serious TEAEs reported (events) ([2]; 37.5 mg, listed as APC): bile duct obstruction (n=1), and streptococcal endocarditis (n=1)
- Anxiety, incidence ([2]; 75 mg (n = 62)): 2 (3.2) n (%)
- Any TEAE, incidence ([2]; 75 mg (n = 62)): 30 (48.4) n (%)
- Decreased appetite, incidence ([2]; 75 mg (n = 62)): 3 (4.8) n (%)
- Diarrhea, incidence ([2]; 75 mg (n = 62)): 3 (4.8) n (%)
- Discontinuations due to TEAEs, incidence ([2]; 75 mg (n = 62)): 2 (3.2) n (%)
- Dry mouth, incidence ([2]; 75 mg (n = 62)): 1 (1.6) n (%)
- Feeling jittery, incidence ([2]; 75 mg (n = 62)): 3 (4.8) n (%)
- Headache, incidence ([2]; 75 mg (n = 62)): 5 (8.1) n (%)
- Insomnia, incidence ([2]; 75 mg (n = 62)): 0 n (%)
- Irritability, incidence ([2]; 75 mg (n = 62)): 0 n (%)
- Nasopharyngitis, incidence ([2]; 75 mg (n = 62)): 1 (1.6) n (%)
- Nausea, incidence ([2]; 75 mg (n = 62)): 3 (4.8) n (%)
- Pruritus, incidence ([2]; 75 mg (n = 62)): 0 n (%)
- Serious TEAEs, incidence ([2]; 75 mg (n = 62)): 0 n (%)
- Sinusitis, incidence ([2]; 75 mg (n = 62)): 4 (6.5) n (%)
- Serious TEAEs reported (events) ([2]; 150 mg): hyperglycemia (n=1)
- Anxiety, incidence ([2]; 150 mg (n = 117)): 6 (5.1) n (%)
- Any TEAE, incidence ([2]; 150 mg (n = 117)): 83 (70.9) n (%)
- Decreased appetite, incidence ([2]; 150 mg (n = 117)): 9 (7.7) n (%)
- Diarrhea, incidence ([2]; 150 mg (n = 117)): 5 (4.3) n (%)
- Discontinuations due to TEAEs, incidence ([2]; 150 mg (n = 117)): 5 (4.3) n (%)
- Dry mouth, incidence ([2]; 150 mg (n = 117)): 5 (4.3) n (%)
- Feeling jittery, incidence ([2]; 150 mg (n = 117)): 1 (0.9) n (%)
- Headache, incidence ([2]; 150 mg (n = 117)): 10 (8.5) n (%)
- Insomnia, incidence ([2]; 150 mg (n = 117)): 3 (2.6) n (%)
- Irritability, incidence ([2]; 150 mg (n = 117)): 4 (3.4) n (%)
- Nasopharyngitis, incidence ([2]; 150 mg (n = 117)): 7 (6.0) n (%)
- Nausea, incidence ([2]; 150 mg (n = 117)): 10 (8.5) n (%)
- Pruritus, incidence ([2]; 150 mg (n = 117)): 1 (0.9) n (%)
- Serious TEAEs, incidence ([2]; 150 mg (n = 117)): 1 (0.9) n (%)
- Sinusitis, incidence ([2]; 150 mg (n = 117)): 0 n (%)
- Anxiety, incidence ([2]; 300 mg (n = 118)): 16 (13.6) n (%)
- Any TEAE, incidence ([2]; 300 mg (n = 118)): 91 (77.1) n (%)
- Decreased appetite, incidence ([2]; 300 mg (n = 118)): 14 (11.9) n (%)
- Diarrhea, incidence ([2]; 300 mg (n = 118)): 8 (6.8) n (%)
- Discontinuations due to TEAEs, incidence ([2]; 300 mg (n = 118)): 15 (12.7) n (%)
- Dry mouth, incidence ([2]; 300 mg (n = 118)): 9 (7.6) n (%)
- Feeling jittery, incidence ([2]; 300 mg (n = 118)): 7 (5.9) n (%)
- Headache, incidence ([2]; 300 mg (n = 118)): 17 (14.4) n (%)
- Insomnia, incidence ([2]; 300 mg (n = 118)): 11 (9.3) n (%)
- Irritability, incidence ([2]; 300 mg (n = 118)): 1 (0.8) n (%)
- Nasopharyngitis, incidence ([2]; 300 mg (n = 118)): 8 (6.8) n (%)
- Nausea, incidence ([2]; 300 mg (n = 118)): 12 (10.2) n (%)
- Pruritus, incidence ([2]; 300 mg (n = 118)): 0 n (%)
- Serious TEAEs, incidence ([2]; 300 mg (n = 118)): 0 n (%)
- Sinusitis, incidence ([2]; 300 mg (n = 118)): 3 (2.5) n (%)
- Mean increase from baseline in diastolic blood pressure ([2]; 12-week OSA study): 1-3 mmHg
- Mean increase from baseline in pulse rate ([2]; 12-week OSA study): 2-5 beats/minute
- Mean increase from baseline in systolic blood pressure ([2]; 12-week OSA study): 1-4 mmHg
- Anxiety, incidence ([2]; All doses (n = 355)): 25 (7.0) n (%)
- Any TEAE, incidence ([2]; All doses (n = 355)): 241 (67.9) n (%)
- Decreased appetite, incidence ([2]; All doses (n = 355)): 27 (7.6) n (%)
- Diarrhea, incidence ([2]; All doses (n = 355)): 17 (4.8) n (%)
- Discontinuations due to TEAEs, incidence ([2]; All doses (n = 355)): 25 (7.0) n (%)
- Dry mouth, incidence ([2]; All doses (n = 355)): 16 (4.5) n (%)
- Feeling jittery, incidence ([2]; All doses (n = 355)): 14 (3.9) n (%)
- Headache, incidence ([2]; All doses (n = 355)): 36 (10.1) n (%)
- Insomnia, incidence ([2]; All doses (n = 355)): 15 (4.2) n (%)
- Irritability, incidence ([2]; All doses (n = 355)): 8 (2.3) n (%)
- Nasopharyngitis, incidence ([2]; All doses (n = 355)): 18 (5.1) n (%)
- Nausea, incidence ([2]; All doses (n = 355)): 28 (7.9) n (%)
- Pruritus, incidence ([2]; All doses (n = 355)): 4 (1.1) n (%)
- Serious TEAEs, incidence ([2]; All doses (n = 355)): 3 (0.8) n (%)
- Sinusitis, incidence ([2]; All doses (n = 355)): 8 (2.3) n (%)
